This data set can be described thus: Drug absorption in human assessed as human intestinal absorption rate. In kind it is ADME, tissue-based, Intestine.

In the case of `CC1(C)S[C@@H]2[C@H](NC(=O)[C@H](N)c3ccc(O)cc3)C(=O)N2[C@H]1C(=O)O` [AMOXICILLIN], the “log10(%HIA +10)” value came to 2.016.

Turning to `N=C(N)NCC1COc2ccccc2O1` (stereo not given) [GUANOXAN], the “log10(%HIA +10)” value is 1.778.

Consider `O=c1[nH]c(=O)n([C@H]2C[C@H](O)[C@@H](CO)O2)cc1/C=C/Br` [BRIVUDINE], for which the “log10(%HIA +10)” value was determined as 1.58. Next, `CCCC(=O)Nc1ccc(OCC(O)CNC(C)C)c(C(C)=O)c1` (stereo not given) [ACEBUTOLOL]: 1.999; `C[C@](N)(Cc1ccc(O)c(O)c1)C(=O)O` [METHYLDOPA]: 1.708. Next, `OC(Cn1cncn1)(Cn1cncn1)c1ccc(F)cc1F` [FLUCONAZOLE]: 2.027.

With `CN1C[C@H](C(=O)N[C@]2(C)O[C@@]3(O)[C@@H]4CCCN4C(=O)[C@H](Cc4ccccc4)N3C2=O)C[C@@H]2c3cccc4[nH]cc(c34)C[C@H]21` [DIHYDROERGOTAMINE], the “log10(%HIA +10)” value is given as 1.653. Next, `Nc1ncnc2c1ncn2CCOCP(=O)(O)O` [ADEFOVIR]: 1.342; `CN(C)[C@@H]1C(O)=C(C(N)=O)C(=O)[C@@]2(O)C(O)=C3C(=O)c4c(O)cccc4[C@@](C)(O)[C@H]3[C@H](O)[C@@H]12` [OXYTETRACYCLINE]: 1.833. For `Nc1ccn([C@@H]2CS[C@H](CO)O2)c(=O)n1` [LAMIVUDINE], the “log10(%HIA +10)” value turned out to be 1.987.

`CC[C@@H](CO)NCCN[C@@H](CC)CO` [ETHAMBUTOL]: the “log10(%HIA +10)” value was found to be 1.954. Under `N#C[C@H](O[C@@H]1O[C@H](CO[C@@H]2O[C@H](CO)[C@@H](O)[C@H](O)[C@H]2O)[C@@H](O)[C@H](O)[C@H]1O)c1ccccc1` [AMYGDALIN] stands 1.176; under `C[C@]12CCC(=O)C=C1CC[C@@H]1[C@@H]2[C@@H](O)C[C@@]2(C)[C@H]1CC[C@]2(O)C(=O)CO` [HYDROCORTISONE], 2.004.

On to `NC[C@@H]1O[C@H](O[C@H]2[C@@H](O)[C@H](O[C@@H]3[C@@H](O)[C@H](N)C[C@H](N)[C@H]3O[C@H]3O[C@H](CN)[C@@H](O)[C@H](O)[C@H]3N)O[C@@H]2CO)[C@H](N)[C@@H](O)[C@@H]1O` [FRAMYCETIN], for which the “log10(%HIA +10)” value came out at 1.041. As for `COc1ccc2cc([C@H](C)C(=O)O)ccc2c1` [NAPROXEN], the “log10(%HIA +10)” value amounted to 2.037. Turning to GENTAMICIN, the “log10(%HIA +10)” value is 1. As to `Nc1ccn([C@H]2CC[C@@H](CO)O2)c(=O)n1` [ZALCITABINE], the “log10(%HIA +10)” value came out at 1.978. Under `Nc1ccn(C[C@@H](CO)OCP(=O)(O)O)c(=O)n1.O.O` [CIDOFOVIR] stands 1.114; under `CCN(CC)C(=S)SSC(=S)N(CC)CC`, 2.029. Take `NCCC(O)(P(=O)(O)O)P(=O)(O)O` [PAMIDRONIC ACID]: the “log10(%HIA +10)” value was 1.176. Next, `CC(C)(C)NCC(O)c1ccc(O)c(CO)n1` (stereo not given) [PIRBUTEROL]: 1.845; `N=C(N)N/N=C/c1c(Cl)cccc1Cl` [GUANABENZ]: 1.954.

Consider `CC(=O)Oc1ccccc1C(=O)O` [ASPIRIN], for which the “log10(%HIA +10)” value was determined as 2.041. Next, `CC[C@H]1OC(=O)[C@H](C)[C@@H](O[C@H]2C[C@@](C)(OC)[C@@H](O)[C@H](C)O2)[C@H](C)[C@@H](O[C@@H]2O[C@H](C)C[C@H](N(C)C)[C@H]2O)[C@](C)(O)C[C@@H](C)CN(C)[C@H](C)[C@@H](O)[C@]1(C)O` [AZITHROMYCIN]: 1.663; `NC(=O)N1C(=O)/C(=C(\O)c2cccs2)c2cc(Cl)ccc21` [TENIDAP]: 1.996; `C[C@@H](O)[C@H]1C(=O)N2C(C(=O)O)=C(SCCN=CN)C[C@H]12` [IMIPENEM ANHYDROUS]: 1.176. Under `CC(C)C[C@H]1C(=O)N2CCC[C@H]2[C@]2(O)O[C@](NC(=O)[C@@H]3C=C4c5cccc6[nH]c(Br)c(c56)C[C@H]4N(C)C3)(C(C)C)C(=O)N12` [BROMOCRIPTINE] stands 1.58. On to `NC(=O)OCC(COC(N)=O)c1ccccc1` [FELBAMATE], for which the “log10(%HIA +10)” value is reported as 2. On to `CO/N=C(\C(=O)N[C@@H]1C(=O)N2C(C(=O)O)=C(CSc3nc(C)c(CC(=O)O)s3)CS[C@H]12)c1csc(N)n1` [CEFODIZIME], for which the “log10(%HIA +10)” value worked out at 1.

Regarding `Cc1cccc(C)c1NC(=O)NCCCNC(C)C`, the “log10(%HIA +10)” value is on record as 1.909. Next, `CCc1oc2ccccc2c1C(=O)c1cc(Br)c(O)c(Br)c1` [BENZBROMARONE]: 1.919. Under `COc1cccc(C(=O)CCN[C@@H](C)[C@H](O)c2ccccc2)c1` [OXYFEDRINE] stands 1.978; under `CC(C)Cc1ccc(C(C)C(=O)O)cc1` (stereo not given) [IBUPROFEN], 2.041; under `CC(C)(C)NCC(O)COc1cccc2c1CC(O)C(O)C2` (stereo not given) [NADOLOL], 1.613. Under `O=C(COCCOCCOCC(=O)Nc1c(I)cc(I)c(C(=O)O)c1I)Nc1c(I)cc(I)c(C(=O)O)c1I` [IOTROXIC ACID] stands 1.176; under `O=C(O)Cc1ccccc1Nc1c(Cl)cccc1Cl` [DICLOFENAC], 2.041; under `NC(CO)C(=O)NNCc1ccc(O)c(O)c1O` (stereo not given) [BENSERAZIDE], 1.903. In the case of `O=CN(O)CCCP(=O)(O)O` [FOSMIDOMYCIN], the “log10(%HIA +10)” value worked out at 1.602. `O=C1c2c(O)ccc(O)c2C(=O)c2c(NCCNCCO)ccc(NCCNCCO)c21` [MITOXANTRONE]: the “log10(%HIA +10)” value is 1.176. For the compound `COc1ccccc1N1CCN(CCCNc2cc(=O)n(C)c(=O)n2C)CC1`, the “log10(%HIA +10)” value stood at 1.945. Under `CC(=O)Oc1cc(C(C)C)c(OCCN(C)C)cc1C` [MOXISYLYTE] stands 1.903; under `NC[C@H]1O[C@H](O[C@H]2[C@H](O)[C@@H](O[C@H]3O[C@H](CO)[C@@H](O)[C@H](N)[C@H]3O)[C@H](N)C[C@@H]2N)[C@H](N)C[C@@H]1O` [TOBRAMYCIN], 1; under `C[C@H]1O[C@H](O[C@H]2[C@H](O)[C@@H](O)[C@@H](O[C@H]3[C@H](O)[C@@H](O)C(O)O[C@@H]3CO)O[C@@H]2CO)[C@H](O)[C@@H](O)[C@@H]1N[C@H]1C=C(CO)[C@@H](O)[C@H](O)[C@H]1O` (stereo not given in full) [ACARBOSE], 1.079. For the compound `OC[C@@H](O)[C@@H](O)[C@H](O)[C@H](O)CO` [MANNITOL], the “log10(%HIA +10)” value came out at 1.415.

On to `CN1[C@@H]2CC[C@H]1C[C@@H](OC(=O)C(CO)c1ccccc1)C2` (stereo not given in full) [ATROPINE], for which the “log10(%HIA +10)” value turned out to be 2.033. Consider `C[C@@H]1[C@H](O)[C@@H](C)/C=C/C=C/C=C/C=C/C=C/C=C/C=C/[C@H](O[C@@H]2O[C@H](C)[C@@H](O)[C@H](N)[C@@H]2O)C[C@@H]2O[C@](O)(C[C@@H](O)C[C@@H](O)[C@H](O)CC[C@@H](O)C[C@@H](O)CC(=O)O[C@H]1C)C[C@H](O)[C@H]2C(=O)O` [AMPHOTERICIN B], for which the “log10(%HIA +10)” value came to 1.176. Under `C=CCNc1nc(NCC=C)nc(N2CCN(C(c3ccc(F)cc3)c3ccc(F)cc3)CC2)n1` [ALMITRINE] stands 2; under `Cn1c(=O)c2c(ncn2C)n(C)c1=O` [CAFFEINE], 2.041; under `CCCc1c2oc(C(=O)O)cc(=O)c2cc2c(=O)cc(C(=O)O)n(CC)c12` [NEDOCROMIL], 1.114. Next, `CC(NC(C)(C)C)C(=O)c1cccc(Cl)c1` (stereo not given) [BUPROPION]: 1.987.

The values are drawn from ChEMBL document CHEMBL1649380, “Prediction of drug intestinal absorption by new linear and non-linear QSPR” (Eur J Med Chem, 2011).
